Where a name gives a salt, the structure may show the parent alone.
Molecular target: T1, Full-length USP19 (Homo sapiens, UniProt O94966)
T1 construct: Full-length USP19 was purchased from Boston Biochem (E-576); purchased Boston Biochem E-576
T1 sequence (O94966 1-1318): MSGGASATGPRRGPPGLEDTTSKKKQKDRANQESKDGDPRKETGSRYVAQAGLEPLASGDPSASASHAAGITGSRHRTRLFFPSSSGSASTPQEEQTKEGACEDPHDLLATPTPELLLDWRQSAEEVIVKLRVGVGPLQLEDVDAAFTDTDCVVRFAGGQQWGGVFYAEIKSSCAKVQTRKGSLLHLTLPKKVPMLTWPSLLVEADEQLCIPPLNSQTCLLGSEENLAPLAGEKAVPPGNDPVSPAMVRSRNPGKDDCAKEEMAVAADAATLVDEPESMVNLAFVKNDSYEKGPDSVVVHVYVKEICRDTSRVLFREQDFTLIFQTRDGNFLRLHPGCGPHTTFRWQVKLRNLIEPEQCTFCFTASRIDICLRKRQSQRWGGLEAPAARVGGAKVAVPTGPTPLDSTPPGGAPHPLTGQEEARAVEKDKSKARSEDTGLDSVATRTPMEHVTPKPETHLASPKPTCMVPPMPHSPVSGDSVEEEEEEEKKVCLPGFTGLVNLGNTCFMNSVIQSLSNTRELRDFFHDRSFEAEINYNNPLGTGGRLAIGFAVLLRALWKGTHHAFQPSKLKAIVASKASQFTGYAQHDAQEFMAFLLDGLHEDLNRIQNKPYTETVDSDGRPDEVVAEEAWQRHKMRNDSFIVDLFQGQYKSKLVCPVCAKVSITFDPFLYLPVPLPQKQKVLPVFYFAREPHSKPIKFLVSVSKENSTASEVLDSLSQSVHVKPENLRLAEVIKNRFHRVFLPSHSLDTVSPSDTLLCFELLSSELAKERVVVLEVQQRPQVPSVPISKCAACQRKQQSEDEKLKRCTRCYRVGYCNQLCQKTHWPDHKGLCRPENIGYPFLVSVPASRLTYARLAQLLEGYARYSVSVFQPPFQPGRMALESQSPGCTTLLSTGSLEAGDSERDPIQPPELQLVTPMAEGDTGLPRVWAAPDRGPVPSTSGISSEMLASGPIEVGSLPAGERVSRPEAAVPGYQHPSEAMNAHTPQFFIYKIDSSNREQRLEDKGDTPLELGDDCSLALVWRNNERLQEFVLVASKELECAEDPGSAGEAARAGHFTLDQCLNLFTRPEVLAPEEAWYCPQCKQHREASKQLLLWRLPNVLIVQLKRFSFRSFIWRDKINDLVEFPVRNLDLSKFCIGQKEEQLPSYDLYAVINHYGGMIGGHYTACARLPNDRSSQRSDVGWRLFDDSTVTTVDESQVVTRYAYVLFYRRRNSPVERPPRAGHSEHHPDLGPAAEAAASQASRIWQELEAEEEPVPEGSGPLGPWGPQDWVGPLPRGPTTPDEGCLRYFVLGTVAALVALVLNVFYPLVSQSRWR
Experiment: USP19 fluorescence polarisation (FP) assay, Ubiquitin-Lys-TAMRA substrate
Format: biochemical
Details: average of at least two duplicate experiments
Procedure, shortened: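 Fluorescence polarisation (excitation 530 nm, parallel and perpendicular emission at 575 nm) was recorded every 15 min for 90 min after adding the ubiquitin-Lys-TAMRA isopeptide (500 nM as dispensed). Beforehand, the full-length enzyme (2.5 nM as dispensed) sat 30 min at RT with compound diluted from 200 μM to 2 μM in HEPES pH 7.4 buffer with 150 mM NaCl, 5 mM DTT, 0.05% BSA and 0.05% CHAPS. Values normalised to uninhibited wells gave IC50s by non-linear fitting, each the mean of two or more duplicate runs.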

| IC50 [nM] | SMILES |
| --- | --- |
| < 10 | CN[C@@H]1CCN(C(=O)N2CC[C@@H](Cn3cnc(-c4ccccc4)cc3=O)C3(CCCC3)C2)[C@H](c2ccc(F)c(F)c2)C1 [Example 133, 3-(((R)-7-((2S,4R)-2-(3,4-Difluorophenyl)-4-(methylamino)piperidine-1-carbonyl)-7-azaspiro[4.5]decan-10-yl)methyl)-6-phenylpyrimidin-4(3H)-one] |
| < 10 | N[C@@H]1CCN(C(=O)N2CC[C@@H](Cn3cnc(-c4ccccc4)cc3=O)C3(CCCC3)C2)[C@H](c2cc(F)ccc2F)C1 [Example 86, 3-(((R)-7-((2S,4R)-4-amino-2-(2,5-difluorophenyl)piperidine-1-carbonyl)-7-azaspiro[4.5]decan-10-yl)methyl)-6-phenylpyrimidin-4(3H)-one] |
| 100 to 1000 | CNC(=O)[C@@H]1CCN(C(=O)N2CC[C@@H](Cn3cnc(-c4ccccc4)cc3=O)C3(CCCC3)C2)[C@H](c2ccccc2)C1 [Example 176, (2S,4R)-N-Methyl-1-((R)-10-((6-oxo-4-phenylpyrimidin-1(6H)-yl)methyl)-7-azaspiro[4.5]decane-7-carbonyl)-2-phenylpiperidine-4-carboxamide] |
| 10 to 100 | O=C1OCCN1[C@@H]1CCN(C(=O)N2CC[C@@H](Cn3cnc(-c4ccccc4)cc3=O)C3(CCCC3)C2)[C@H](c2cccc(F)c2)C1 [Example 197, 3-((2S,4R)-2-(3-Fluorophenyl)-1-((R)-10-((6-oxo-4-phenylpyrimidin-1(6H)-yl)methyl)-7-azaspiro[4.5]decane-7-carbonyl)piperidin-4-yl)oxazolidin-2-one] |
| 10 to 100 | O=C(N[C@@H]1CCN(C(=O)N2CC[C@@H](Cn3ccc(-c4ccccc4)cc3=O)C3(CCCC3)C2)[C@H](c2ccccc2)C1)C1CC1 [Example 96, N-((2S,4R)-1-((R)-10-((2-Oxo-4-phenylpyridin-1(2H)-yl)methyl)-7-azaspiro[4.5]decane-7-carbonyl)-2-phenylpiperidin-4-yl)cyclopropanecarboxamide] |
| 10 to 100 | CC[C@@H]1C[C@H](N)CCN1C(=O)N1CC[C@@H](Cn2ccc(-c3ccccc3)cc2=O)C2(CCCC2)C1 [Example 68, 1-(((R)-7-((2R,4R)-4-Amino-2-ethylpiperidine-1-carbonyl)-7-azaspiro[4.5]decan-10-yl)methyl)-4-phenylpyridin-2(1H)-one] |
| < 10 | CN[C@@H]1CCN(C(=O)N2CC[C@@H](Cn3cnc(-c4ccccc4C)cc3=O)C3(CCCC3)C2)[C@H](c2cc(F)ccc2F)C1 [Example 114, 3-(((R)-7-((2S,4R)-2-(2,5-Difluorophenyl)-4-(methylamino)piperidine-1-carbonyl)-7-azaspiro[4.5]decan-10-yl)methyl)-6-(o-tolyl)pyrimidin-4(3H)-one] |
| 1000 to 20000 | C[C@H](CC(F)(F)F)C(=O)N1CCC(Cn2cnc(-c3ccccc3)cc2=O)C2(CCCC2)C1 (stereo partly drawn) [Example 4, 6-Phenyl-3-((7-((R)-4,4,4-trifluoro-2-methylbutanoyl)-7-azaspiro[4.5]decan-10-yl)methyl)pyrimidin-4(3H)-one] |
| < 10 | N[C@@H]1CCN(C(=O)N2CCC(Cn3cnc4cc(F)c(F)cc4c3=O)C3(CCCC3)C2)[C@H](c2ccccc2)C1 (stereo partly drawn) [Example 37, 3-((7-((2S,4R)-4-Amino-2-phenylpiperidine-1-carbonyl)-7-azaspiro[4.5]decan-10-yl)methyl)-6,7-difluoroquinazolin-4(3H)-one] |
| < 10 | N[C@@H]1CCN(C(=O)N2CC[C@@H](Cn3ccc(-c4ccccc4)cc3=O)C3(CCCC3)C2)[C@H](c2cc(F)cc(F)c2)C1 [Example 108, 1-(((R)-7-((2S,4R)-4-Amino-2-(3,5-difluorophenyl)piperidine-1-carbonyl)-7-azaspiro[4.5]decan-10-yl)methyl)-4-phenylpyridin-2(1H)-one] |
| 1000 to 20000 | COC[C@H](CC(F)(F)F)C(=O)N1CCC(Cn2cnc(-c3ccccc3)cc2=O)C2(CCCC2)C1 (stereo partly drawn) [Example 7, 6-Phenyl-3-((7-((S)-4,4,4-trifluoro-2-(methoxymethyl)butanoyl)-7-azaspiro[4.5]decan-10-yl)methyl)pyrimidin-4(3H)-one] |
| 100 to 1000 | O=C(N1CC[C@@H](Cn2cnc3ccc(F)cc3c2=O)C2(CCCC2)C1)N1CC[C@@H](N2CCOCC2)C[C@H]1c1ccccc1 [Example 171, 6-Fluoro-3-(((R)-7-((2S,4R)-4-morpholino-2-phenylpiperidine-1-carbonyl)-7-azaspiro[4.5]decan-10-yl)methyl)quinazolin-4(3H)-one hydrochloride] |
| < 10 | CN[C@@H]1CCN(C(=O)N2CC[C@@H](Cn3ccc(-c4ccccc4OC)cc3=O)C3(CCCC3)C2)[C@H](c2cccc(F)c2F)C1 [Example 131, 1-(((R)-7-((2S,4R)-2-(2,3-Difluorophenyl)-4-(methylamino)piperidine-1-carbonyl)-7-azaspiro[4.5]decan-10-yl)methyl)-4-(2-methoxyphenyl)pyridin-2(1H)-one] |
| < 10 | CN[C@@H]1CCN(C(=O)N2CCC(Cn3cnc(-c4ccccc4)cc3=O)CC2)[C@H](c2cccc(F)c2)C1 [Example 74, 3-((1-((2S,4R)-2-(3-Fluorophenyl)-4-(methylamino)piperidine-1-carbonyl)piperidin-4-yl)methyl)-6-phenylpyrimidin-4(3H)-one] |
| 100 to 1000 | O=C(N1CC[C@@H](Cn2ccc(-c3ccccc3)cc2=O)C2(CCCC2)C1)N1CC[C@H](NC2CS(=O)(=O)C2)C[C@H]1c1ccccc1 [Example 51, 1-(((R)-7-((2S,4S)-4-((1,1-Dioxidothietan-3-yl)amino)-2-phenylpiperidine-1-carbonyl)-7-azaspiro[4.5]decan-10-yl)methyl)-4-phenylpyridin-2(1H)-one] |
| 1000 to 20000 | COC(=O)[C@@H]1CCN(C(=O)N2CC[C@@H](Cn3cnc(-c4ccccc4)cc3=O)C3(CCCC3)C2)[C@H](c2ccccc2)C1 [Example 76] |
| 100 to 1000 | O=C(NCc1ccccc1)N1CCC(Cn2cnc(-c3ccccc3)cc2=O)C2(CCCC2)C1 (stereo not drawn) [Example 10, N-Benzyl-10-((6-oxo-4-phenylpyrimidin-1(6H)-yl)methyl)-7-azaspiro[4.5]decane-7-carboxamide] |
| 1000 to 20000 | CN(C)C(=O)[C@@H]1CCN(C(=O)N2CC[C@@H](Cn3cnc(-c4ccccc4)cc3=O)C3(CCCC3)C2)[C@H](c2ccccc2)C1 [Example 177, (2S,4R)-N,N-Dimethyl-1-((R)-10-((6-oxo-4-phenylpyrimidin-1(6H)-yl)methyl)-7-azaspiro[4.5]decane-7-carbonyl)-2-phenylpiperidine-4-carboxamide] |
| < 10 | N[C@@H]1CCN(C(=O)N2CC[C@@H](Cn3ccc(-c4ccccc4)cc3=O)C3(CCCC3)C2)[C@H](c2cccc(F)c2)C1 [Example 65, 1-(((R)-7-((2S,4R)-4-Amino-2-(3-fluorophenyl)piperidine-1-carbonyl)-7-azaspiro[4.5]decan-10-yl)methyl)-4-phenylpyridin-2(1H)-one] |
| 10 to 100 | CN[C@@H]1CCN(C(=O)N2CC[C@@H](CN3CC(c4ccccc4)=CC3=O)C3(CCCC3)C2)[C@H](c2cc(F)ccc2F)C1 [Example 178, 1-(((R)-7-((2S,4R)-2-(2,5-Difluorophenyl)-4-(methylamino)piperidine-1-carbonyl)-7-azaspiro[4.5]decan-10-yl)methyl)-4-phenyl-1,5-dihydro-2H-pyrrol-2-one] |
| < 10 | CN[C@@H]1CCN(C(=O)N2CCC(Cn3ccc(-c4ccccc4)cc3=O)CC2)[C@H](c2cc(F)ccc2F)C1 [Example 98, 1-((1-((2S,4R)-2-(2,5-Difluorophenyl)-4-(methylamino)piperidine-1-carbonyl)piperidin-4-yl)methyl)-4-phenylpyridin-2(1H)-one] |

Reference: US20240327382A1 (ALMAC DISCOVERY LIMITED, priority 2021, published 2024)
